# In patent US20240207202A1, “COMBINATION THERAPIES TARGETING MITOCHONDRIAL BIOGENESIS FOR CANCER THERAPY” (The Wistar Institute of Anatomy and Biology, priority 2015, published 2024):
# Like-named read-outs stand apart in the source and are kept apart here.
# Assays:
# WM9 melanoma cells = experiment: Induction of apoptosis and cell death by PSVue 643 staining in WM9 melanoma cells; format: cell-based, human; details: WM9, 72 h
# Procedure: Adherent melanoma cells were harvested with 0.05% Trypsin-EDTA and were washed once with 1×DPBS. Cells were labeled with CellTrace™ Violet according to the manufacturer's protocol and were allowed to adhere to tissue culture plates overnight following the drug treatment. […] Cells were then immediately subjected to FACS analysis using a BD LSR II flow cytometer and at least 5,000 cells per sample were acquired.
# Cell suspensions were kept in the dark at room temperature for 5 min. 0.2 ml 1×PBS supplemented with 10% FBS was added to each cell suspension and cells were immediately analyzed by BD LSRII.
# Briefly, autophagic flux was assessed by FACS analysis of WM9 cells expressing the mCherry-eGFPLC3B construct that were transfected with the indicated siRNAs targeting autophagy and ER stress response and treated for 72 h with DMSO or the combination of PLX4720 at 10 μM and PD0325901 at 1 μM. The data represent the average of 2 biological replicates. […] Autophagic flux was assessed by FACS analysis of WM9 cells expressing the mCherry-eGFPLC3B construct treated for 72 h with Gamitrinib at 1 μM or Spautin-1 at 10 μM in combination with PLX4720 at 10 μM/PD0325901 at 1 μM. Cells treated with DMSO were used as the control for setting up the gate.
# [1] = test system: CCLE melanoma cell lines with BRAFV600 mutations; details: MitoB high vs low subgroups, two sample t-test; cited from earlier work
# MitoBiogenesis [2] = details: Malme-3M and COLO829, 8 h; public gene expression microarray data; cited from earlier work
# autophagic flux = experiment: Autophagic flux in WM9 cells expressing mCherry-eGFP-LC3B; format: cell-based, human; details: WM9, 72 h, Gamitrinib 1 μM or Spautin-1 10 μM combined with PLX4720 10 μM/PD0325901 1 μM
# Procedure: WM9 cells stably expressing pLVO-Puro-mCherry-eGFP-LC3 were analyzed with a BD LSR II flow cytometer. Fluorescence of mCherry and eGFP was recorded to derive the ratio of mCherryheight over eGFP-height. This ratio indicates the autophagic flux.
# Briefly, autophagic flux was assessed by FACS analysis of WM9 cells expressing the mCherry-eGFPLC3B construct that were transfected with the indicated siRNAs targeting autophagy and ER stress response and treated for 72 h with DMSO or the combination of PLX4720 at 10 μM and PD0325901 at 1 μM. The data represent the average of 2 biological replicates. Induction of apoptosis and cell death was assessed by PSVue 643 staining in WM9 cells expressing the mCherry-eGFP-LC3B construct transfected with the indicated siRNAs targeting autophagy and ER stress response and treated for 72 h with DMSO or the combination of PLX4720 at 10 μM and PD0325901 at 1 μM. Autophagic flux was assessed by FACS analysis of WM9 cells expressing the mCherry-eGFPLC3B construct treated for 72 h with Gamitrinib at 1 μM or Spautin-1 at 10 μM in combination with PLX4720 at 10 μM/PD0325901 at 1 μM. Cells treated with DMSO were used as the control for setting up the gate. Induction of apoptosis and cell death was assessed by PSVue 643 staining in WM9 cells treated for 72 h with Gamitrinib at 1 μM or Spautin-1 at 10 μM in combination with PLX4720 at 10 μM/PD0325901 at 1 μM. […]
# [3] = test system: BRAF(V600E), BRAF(wild type), c-RAF, VEGFR2, PDGFR, CSF1R, RET, c-KIT, SRC, STE20; details: range over several intracellular kinases; cited from earlier work
# [4] = test system: BRAFV600E, VEGFR2, PDGFRB, c-KIT; details: cited from earlier work
# [5] = test system: mitochondrial respiratory chain complex subunits; experiment: Expression of mitochondrial respiratory chain complex subunits in WM9 cells (qRT-PCR, RPPA, immunoblot); format: cell-based, human; details: qRT-PCR
# Procedure: One μg total mRNA was reverse transcribed using a Maxima First Strand cDNA Synthesis Kit for qRT-PCR (Thermo Fisher). Fast SYBR® Green Master Mix (Life Technologies) was used with cDNA template and primers to evaluate the expression of target genes and GAPDH. Primers used were purchased from Integrated DNA Technologies. Amplifications were performed using an Applied Biosystems® 7500 Real-Time PCR System (Life Technologies). All experiments were performed in triplicate. Expression ratios of controls were normalized to 1. Please see Extended Experimental Procedures for the list of PCR primer sequences. The raw data of gene expression microarrays generated from Illumina Chips were normalized, background-corrected and summarized using the R package “lumi” (Du et al., 2008). […] To reduce false positives, the unexpressed probes were removed. The R package “limma” (Smyth, 2004, 2005) was employed for gene differential expression analysis, followed by multiple test correction by the Benjamini and Hochberg procedure (Benjamini and Hochberg, 1995). […] We also conducted GSEA as previously reported (Subramanian et al., 2005). For GSEA, we analyzed gene sets obtained from the Molecular Signatures Database (broadinstitute.org/gsea/msigdb/). The same differential expression analysis method was applied to RPPA data. Cells were washed with ice-cold PBS containing 100 μM Na3VO4 and scraped off culture dishes. After centrifugation, cell pellets were lysed in buffer containing 10 mM Tris-HCl, pH 7.8, 150 mM NaCl, 1 mM EDTA, 1% Nonidet P-40, 1 mM Na3VO4 and protease inhibitors (Roche complete protease inhibitor tablets). Lysates were cleared by micro-centrifugation and protein concentrations were determined with Protein Assay Dye Reagent Concentrate (Bio-Rad). For western blots, 25 μg of each lysate were run on 15-well 10% or 12% SDS-PAGE gels and transferred onto nitrocellulose membranes using a dye fast Trans-BlotR Turbo™ transfer system (Bio-Rad). Blots were blocked in SEA BLOCK Blocking Buffer (Thermo Scientific) diluted with 1×TBS at 1:1 ratio at room temperature for 1 h, incubated overnight with primary antibody at 4° C., stained with secondary antibodies conjugated to IRDye® Infrared Dyes (LI-COR Biosciences) and then visualized using an Odyssey flatbed scanner (LI-COR Biosciences).
# [6] = test system: 1205Lu melanoma xenograft; experiment: Tumor volume of 1205Lu melanoma xenografts; format: in vivo, mice; details: 1205Lu xenografts
# MitoBiogenesis [7] = experiment: Expression of 18 MitoBiogenesis genes in melanoma cells (microarray, qRT-PCR, immunoblot); format: cell-based, human; details: for expression of MitoBiogenesis: qRT-PCR, 72 h
# Procedure: One μg total mRNA was reverse transcribed using a Maxima First Strand cDNA Synthesis Kit for qRT-PCR (Thermo Fisher). Fast SYBR® Green Master Mix (Life Technologies) was used with cDNA template and primers to evaluate the expression of target genes and GAPDH. Primers used were purchased from Integrated DNA Technologies. Amplifications were performed using an Applied Biosystems® 7500 Real-Time PCR System (Life Technologies). All experiments were performed in triplicate. Expression ratios of controls were normalized to 1. Please see Extended Experimental Procedures for the list of PCR primer sequences. Access of Gene Expression Microarray Data and TCGA Melanoma Patients' RNA-seq Data Time-course Illumina gene expression microarray data of WM9 melanoma cells were deposited at the NCBI Gene Expression Omnibus (GEO) (ncbi.nlm.nih.gov/geo/) under the accession number GSE58721. Normalized CCLE gene expression microarray data were directly downloaded from Broad CCLE (broadinstitute.org/ccle). Gene expression microarray data of A375 and SK-MEL-28 melanoma cells were downloaded from GEO under accession numbers GSE42872 and GSE37441, respectively. Gene expression microarray data of Malme-3M and COLO829 melanoma cells were downloaded from GEO under the accession number GSE51113. Normalized RNA-seq data of TCGA melanoma patients were downloaded from TCGA Data Portal (https://tcga-data.nci.nih.gov/tcga/). Cells were washed with ice-cold PBS containing 100 μM Na3VO4 and scraped off culture dishes. After centrifugation, cell pellets were lysed in buffer containing 10 mM Tris-HCl, pH 7.8, 150 mM NaCl, 1 mM EDTA, 1% Nonidet P-40, 1 mM Na3VO4 and protease inhibitors (Roche complete protease inhibitor tablets). Lysates were cleared by micro-centrifugation and protein concentrations were determined with Protein Assay Dye Reagent Concentrate (Bio-Rad). For western blots, 25 μg of each lysate were run on 15-well 10% or 12% SDS-PAGE gels and transferred onto nitrocellulose membranes using a dye fast Trans-BlotR Turbo™ transfer system (Bio-Rad). […]
# [8] = Table 6, mice treated 15 days, PLX4720 200 mg/kg diet, 2,4-DNP 20 mg/kg QD p.o., alone or combined
structure (smiles),measurement,setting,value
"N=C(N)NC(=N)NCCc1ccccc1 [Phenformin, 1-phenethylbiguanide]","apoptosis and cell death, compared with other inhibitors of the drug screen","WM9 melanoma cells; titrated doses combined with MAPK pathway inhibitors (PLX4720 10 μM, PD0325901 1 μM)",greater increase in apoptosis and cell death
O=C(NOC[C@H](O)CO)c1ccc(F)c(F)c1Nc1ccc(I)cc1F [PD0325901],drug IC50 of cell lines with higher basal level of MitoBiogenesis versus lower,[1],significantly lower drug IC50
same,expression of MitoBiogenesis,MitoBiogenesis [2],inhibited
"Fc1ccc(CNc2ncnc3ccc(F)cc23)cc1 [Spautin-1, reference compound]",induction of apoptosis and cell death,WM9 melanoma cells; Spautin-1 10 μM combined with PLX4720 10 μM/PD0325901 1 μM,not able to trigger a significant induction of apoptosis and cell death
same,autophagic flux,autophagic flux,effectively decreased the autophagic flux
Cn1c(Nc2ccc(C(F)(F)F)cc2)nc2cc(Oc3ccnc(-c4ncc(C(F)(F)F)[nH]4)c3)ccc21 [RAF265],IC50,[3],[…]
same,drug IC50 of cell lines with higher basal level of MitoBiogenesis versus lower,[1],significantly lower drug IC50
same,potency in cell-based assays,[4]; BRAFV600E and VEGFR2,most potent
same,potency in cell-based assays,[4]; PDGFRB and c-KIT,less active
CCCS(=O)(=O)Nc1ccc(F)c(C(=O)c2c[nH]c3ncc(Cl)cc23)c1F [PLX4720],expression of 30 mitochondria respiratory chain complex subunits,"[5]; WM9, 72 h",substantially up-regulated
same,expression of 5 representative mitochondrial respiratory chain complex subunits,"[5]; WM9, PLX4720 10 μM up to 120 h",up-regulated
same,drug IC50 of cell lines with higher basal level of MitoBiogenesis versus lower,[1],significantly lower drug IC50
same,% T/C (percentages of tumor volumes),[6]; [8],51.41%
same,% T/C (percentages of tumor volumes),"[6]; Table 7, 17 days, PLX4720 200 mg/kg diet",56.88%
same,expression of MitoBiogenesis,MitoBiogenesis [7]; A375 cells,decreased the expression of MitoBiogenesis
same,expression of MitoBiogenesis (protein),"MitoBiogenesis [7]; WM9 cells, PLX4720 10 μM, 72 h time course, immunoblotting",up-regulated in a time-dependent manner
same,expression of MitoBiogenesis,MitoBiogenesis [7]; WM793 or WM9 cells,up-regulated MitoBiogenesis
"CC(=O)N[C@@H](CS)C(=O)O [NAC, N-acetyl-L-cysteine]",apoptosis and cell death induced by the combination of Gamitrinib and MAPK pathway inhibitors,WM9 melanoma cells; NAC 5 mM,markedly suppress apoptosis and cell death
"O=[N+]([O-])c1ccc(O)c([N+](=O)[O-])c1 [2,4-DNP, 2,4-dinitrophenol]",tumor growth,"[6]; 2,4-DNP alone or with PLX4720, combination compared to PLX4720 alone",failed to inhibit tumor growth
same,% T/C (percentages of tumor volumes),[6]; [8],101.96%
